The source of these data is article PMC11062922 (Nature Chemical Biology, 2023).

For test [1], the target named is T1, SYK (Homo sapiens, UniProt P43405).
T1 construct: endogenous in cells
Description: Kinobeads two-dose competition binding: SYK.

In test [2] the target is T2, endogenous kinases and other proteins enriched by Kinobeads from mixed lysates of K-562, COLO-205, MV-4-11, SK-N-BE(2) and OVCAR-8 (Homo sapiens, UniProt P06239).
T2 construct: endogenous in cells
Description: Kinobeads competition binding profiling, two doses (100 nM and 1 µM).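 Also: inhibitor preincubated 45 min at 4 °C in cell lysate, then bead pulldown. Bound protein quantified by label-free mass spectrometry relative to DMSO vehicle control.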

Test [3] concerns the target T3, endogenous kinases and other proteins enriched by Kinobeads from mixed lysates of K-562, COLO-205, MV-4-11, SK-N-BE(2) and OVCAR-8 (Homo sapiens, UniProt P23458).
T3 construct: to maximize the representation of endogenous proteins; endogenous in cells
Described as above.

Test [4] concerns the target T4, endogenous kinases and other proteins enriched by Kinobeads from mixed lysates of K-562, COLO-205, MV-4-11, SK-N-BE(2) and OVCAR-8 (Homo sapiens, UniProt P12931).
T4 construct: to maximize the representation of endogenous proteins; endogenous in cells
The test is described as above.

T3 sequence (P23458 whole entry): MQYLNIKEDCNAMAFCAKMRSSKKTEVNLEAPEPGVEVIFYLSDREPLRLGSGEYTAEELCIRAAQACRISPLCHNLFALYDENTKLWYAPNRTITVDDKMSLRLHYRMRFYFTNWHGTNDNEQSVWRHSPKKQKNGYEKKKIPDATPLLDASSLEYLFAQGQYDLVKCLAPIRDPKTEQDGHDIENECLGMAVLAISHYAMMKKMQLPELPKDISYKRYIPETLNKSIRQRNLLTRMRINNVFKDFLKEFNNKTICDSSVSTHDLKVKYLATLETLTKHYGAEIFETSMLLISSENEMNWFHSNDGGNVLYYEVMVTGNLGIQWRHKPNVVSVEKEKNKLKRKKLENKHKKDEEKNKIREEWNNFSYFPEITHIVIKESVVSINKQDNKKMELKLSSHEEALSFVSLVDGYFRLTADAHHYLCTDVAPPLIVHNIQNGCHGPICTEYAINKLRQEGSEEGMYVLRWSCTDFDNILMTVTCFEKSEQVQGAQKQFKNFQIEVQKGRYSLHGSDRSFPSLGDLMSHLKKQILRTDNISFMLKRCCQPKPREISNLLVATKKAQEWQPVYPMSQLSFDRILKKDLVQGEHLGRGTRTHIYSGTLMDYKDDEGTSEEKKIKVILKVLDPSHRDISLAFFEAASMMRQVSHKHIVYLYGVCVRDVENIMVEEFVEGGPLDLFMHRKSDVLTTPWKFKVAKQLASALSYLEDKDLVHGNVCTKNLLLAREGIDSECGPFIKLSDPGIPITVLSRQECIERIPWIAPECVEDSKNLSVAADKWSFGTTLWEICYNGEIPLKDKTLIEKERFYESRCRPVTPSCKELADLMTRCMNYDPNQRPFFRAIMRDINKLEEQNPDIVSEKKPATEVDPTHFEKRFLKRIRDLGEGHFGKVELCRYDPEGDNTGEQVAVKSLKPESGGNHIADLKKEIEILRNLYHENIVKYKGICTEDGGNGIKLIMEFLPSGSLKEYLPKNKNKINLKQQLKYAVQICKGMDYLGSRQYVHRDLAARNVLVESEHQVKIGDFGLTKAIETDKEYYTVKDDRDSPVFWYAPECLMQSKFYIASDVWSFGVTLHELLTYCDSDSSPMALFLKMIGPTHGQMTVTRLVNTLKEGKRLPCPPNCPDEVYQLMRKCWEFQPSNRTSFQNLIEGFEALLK
T4 sequence (P12931 whole entry): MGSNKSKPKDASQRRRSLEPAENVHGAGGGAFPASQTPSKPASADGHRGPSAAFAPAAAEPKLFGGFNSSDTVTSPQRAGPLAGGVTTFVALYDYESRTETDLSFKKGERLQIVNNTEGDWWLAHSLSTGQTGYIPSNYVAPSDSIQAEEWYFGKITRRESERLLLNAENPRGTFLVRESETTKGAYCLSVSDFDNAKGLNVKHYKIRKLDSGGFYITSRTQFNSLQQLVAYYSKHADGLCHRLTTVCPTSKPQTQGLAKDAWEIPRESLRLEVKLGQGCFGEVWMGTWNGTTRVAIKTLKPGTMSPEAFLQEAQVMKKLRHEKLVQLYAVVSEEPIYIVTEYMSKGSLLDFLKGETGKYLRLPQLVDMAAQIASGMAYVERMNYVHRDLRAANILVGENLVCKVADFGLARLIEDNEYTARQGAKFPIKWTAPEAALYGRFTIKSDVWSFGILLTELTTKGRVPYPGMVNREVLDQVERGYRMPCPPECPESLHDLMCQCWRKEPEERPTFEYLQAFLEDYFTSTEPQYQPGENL
T2 sequence (P06239 whole entry): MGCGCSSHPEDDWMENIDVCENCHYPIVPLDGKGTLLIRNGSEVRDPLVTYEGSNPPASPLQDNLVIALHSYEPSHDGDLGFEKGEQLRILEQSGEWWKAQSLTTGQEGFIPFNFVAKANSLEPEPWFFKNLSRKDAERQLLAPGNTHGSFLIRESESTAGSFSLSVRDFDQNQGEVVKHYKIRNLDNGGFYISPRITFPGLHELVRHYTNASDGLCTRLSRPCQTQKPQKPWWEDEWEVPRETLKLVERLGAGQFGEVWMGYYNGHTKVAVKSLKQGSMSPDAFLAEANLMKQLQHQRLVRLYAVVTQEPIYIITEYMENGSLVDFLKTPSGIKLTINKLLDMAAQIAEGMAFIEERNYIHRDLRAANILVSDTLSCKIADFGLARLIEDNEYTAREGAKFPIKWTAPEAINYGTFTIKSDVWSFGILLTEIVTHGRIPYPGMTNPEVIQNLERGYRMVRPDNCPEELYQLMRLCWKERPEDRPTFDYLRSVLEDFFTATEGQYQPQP

As to `COc1cc(Nc2ncc3c(C)nc(-c4cc5ccccc5[nH]4)n3n2)cc(OC)c1OC` [GW869516X], the “Kinobeads Data” value in test [1] (SYK), in test [2] (LCK), in test [3] (JAK1(JH2domain-pseudokinase)) and in test [4] (SRC) was “no target” each time.

In the case of `C[C@]12O[C@H](C[C@]1(O)CO)n1c3ccccc3c3c4c(c5c6ccccc6n2c5c31)CNC4=O` [Lestaurtinib], the potency estimated from few doses in test [1] (read-out: Lestaurtinib Drugmatrix value, Gene Name SYK) was 0.157 µM; in test [2] (read-out: Lestaurtinib Drugmatrix value (apparent Kd), Gene Name LCK, target LCK, each column = one Lestaurtinib control run_replicate) it was 0.55 µM; in test [3] (read-out: Lestaurtinib Drugmatrix value (apparent Kd), Gene Name JAK1, target JAK1, each column = one Lestaurtinib control run_replicate) it was 0.881 µM; in test [4] (read-out: Lestaurtinib Drugmatrix value, Gene Name SRC), 0.618 µM.
